Reference: PubChem BioAssay AID1053129 (The Scripps Research Institute Molecular Screening Center, 2014)
pIC50: −log10 of the molar value. Active and inactive are the calls of the source. The rule behind the calls is not given here.

Target: Fibrinogen beta chain (Homo sapiens) (UniProt P02675)
Experiment: Tn6 displacement potency at DD(E) complex – biochemical, fluorescence polarization, human fibrin, dose response, late-stage follow-up (AID 1053129)
Details: FP, Tn6 cyclic peptide binding to DD(E)

Sequence of Fibrinogen beta chain (Homo sapiens) (P02675 whole entry, looked up): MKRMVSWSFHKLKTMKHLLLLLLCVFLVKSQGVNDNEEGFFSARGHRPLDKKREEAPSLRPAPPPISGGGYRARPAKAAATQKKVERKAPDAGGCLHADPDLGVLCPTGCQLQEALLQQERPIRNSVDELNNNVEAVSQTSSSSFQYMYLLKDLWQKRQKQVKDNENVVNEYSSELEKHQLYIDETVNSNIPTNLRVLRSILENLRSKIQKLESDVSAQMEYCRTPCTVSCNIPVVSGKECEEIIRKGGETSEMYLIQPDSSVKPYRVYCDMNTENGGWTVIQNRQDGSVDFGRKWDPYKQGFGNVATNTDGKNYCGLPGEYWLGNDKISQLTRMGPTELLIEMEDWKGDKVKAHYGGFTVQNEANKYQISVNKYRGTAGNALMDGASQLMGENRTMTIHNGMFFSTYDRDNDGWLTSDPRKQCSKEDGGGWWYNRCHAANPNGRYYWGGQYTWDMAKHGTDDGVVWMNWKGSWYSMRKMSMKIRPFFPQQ

| SMILES | pIC50 | IC50 |
| --- | --- | --- |
| O=C(O)CCCNc1cc(N2CCN(C(=O)c3ccco3)CC2)c2noc3c2c1C(=O)c1ccccc1-3 | 5.17 | – |
| N#CC1=C(N)Oc2ccc3ccc(O)cc3c2C1c1ccsc1 (stereo not given) | 5.46 | – |
| Cc1cc2cc(CNC(=O)c3ccc(S(=O)(=O)N4CCOCC4)cc3)ccc2n1C | – | > 83.3 µM (inactive) |
| CCn1c(CSc2n[nH]c(N)n2)nc2cc(C(=O)O)ccc21 | 5.13 | – |
| Cc1cc2c(cc1S(=O)(=O)N1CCN(c3cccc(C)c3C)CC1)OCCN2C | – | > 83.3 µM (inactive) |
| COc1ccc2ccccc2c1C(O)c1nccn1C (stereo not given) | – | > 83.3 µM (inactive) |
| Cc1cc2cc(CNS(=O)(=O)c3ccc4ccccc4c3)ccc2n1C | – | > 83.3 µM (inactive) |
| CN1C(=O)NC(c2ccccc2[N+](=O)[O-])C2=C1CCCC2=O (stereo not given) | – | inactive |
| NS(=O)(=O)c1ccc(NS(=O)(=O)c2ccc(NC(=O)c3ccc(-c4ccccc4)cc3)cc2)cc1 | 5.46 | – |
| Cc1cc(C)c(S(=O)(=O)NCCn2c(C)cc3ccccc32)c(C)c1 | – | > 83.3 µM (inactive) |
